In publication PMC10786037, “Autoinhibition in the Signal Transducer CIN85 Modulates B Cell Activation” (Journal of the American Chemical Society, 2023):
Where no end group is shown, it is not given here. [ ]: non-standard residue; d: D form. pS = N[C@@H](COP(=O)(O)O)C(=O)O

Assays:
[1] = target: T1, CIN85 SH3C domain (Homo sapiens, UniProt Q96B97); test: NMR titration (chemical shift perturbations) of 15N-labeled SH3C domain with synthetic CIN85-PRM1 peptides; assay type: binding; conditions: for difference in binding energy compared to wild-type peptide (ΔΔG, net energetic contribution of the mutated residue): calculated from the KD's of mutant and wild-type peptide to SH3C; for fold increase of KD compared to wild-type peptide: mutant peptide binding to SH3C domain
T1 construct: His7 (with TEV protease cleavage site) (N, cleaved yes); made in house; host or cells: Escherichia coli BL21(DE3)
T1 sequence (Q96B97 267-328 limits assumed): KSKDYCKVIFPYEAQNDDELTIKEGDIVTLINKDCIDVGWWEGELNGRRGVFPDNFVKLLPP
Description: (§1) The recognition of PRM by SH3 domains typically depends on the presence of positively charged residues, such as arginines at the motif’s N- or C-terminus, which often form cation−π interactions with conserved tryptophan residues in the SH3 binding interface.[30] […] We therefore used CIN85-PRM1 mutant peptide binding to the SH3C domain to determine the role of both arginines (R227 and R229) in this interaction. […] Because we knew that this interaction was in part driven by cation−π interactions, we anticipated a net energetic contribution on the order of −12 ± 6 kJ/mol if such an interaction would be disturbed by the mutation.[32] […] In the context of the whole protein, local concentration and/or cooperative effects could increase the actual strength of this interaction considerably. The residue S230 is adjacent to R229 and a known site for activation-induced phosphorylation in CIN85[33],[34] (see also Figure S4). To investigate the effect of S230s involvement in this interaction, we incorporated a phosphoserine (pS230), a S230D, and a S230A mutation into the synthetic peptide.
(§2) with 1000 resampled datasets with replacement. After obtaining the dissociation constant, the
(§3) Gibbs free energy of this interaction was calculated using the following relation: […]
(§4) Their difference in free energy can then be calculated as follows: […]
(§5) The value of ∆∆G here has the meaning of the stability contribution or net energetic contribution
(§6) of the residue that was mutated. […]

[2] = target: T2, CIN85 SH3A domain (Homo sapiens, UniProt Q96B97); test: NMR titration (chemical shift perturbations) of 15N-labeled SH3A domain with synthetic CIN85-PRM1 peptide; assay type: binding; conditions: isolated SH3A domain, CSP of 15N-labeled domain, error of fitted KD from bootstrap resampling, read-out: KD (mM), binary SH3:peptide interaction
T2 construct: GST (with thrombin cleavage site) (N); made in house; host or cells: Escherichia coli BL21(DE3)
T2 sequence (Q96B97 1-58 limits assumed): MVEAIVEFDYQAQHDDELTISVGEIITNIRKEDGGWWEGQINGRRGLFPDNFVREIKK
Description: (§7) We further used NMR titrations to assess the interaction of CIN85-PRM1 with isolated SH3 domains of CIN85, observing chemical shift perturbations (CSP) in the ^15N-labeled SH3 domains upon titration with a synthetic 14-residue peptide of the sequence ^219FKDKPIKLRPRSIE^232 (see Figure S2). […] We mapped the CSP onto the first model of the NMR structure of SH3C (PDB: 2k9g) in Figure 2A. Binding to the CIN85-PRM1 peptide occurs through the conserved binding site, involving the RT-loop (residues 278–292), the N-Src-loop (residues 300–307), and also the 3_10-helix (residues 320–322) of SH3C (see Figure 2B). […]
(§8) with 1000 resampled datasets with replacement. After obtaining the dissociation constant, the Gibbs free energy of this interaction was calculated using the following relation: […]
(§9) with R as the ideal gas constant (8.314 Jmol−1K−1) and T as the absolute temperature in K. This quantity is useful when comparing two similar interactions that differ in their KD, i.e. variants of the same peptide that have a single-point mutation or a post-translational modification (PTM) and […]
as §4
(§10) Determination of rotational correlation times and translational diffusion coefficients Residue-specific cross-correlated relaxation rates were determined at 800 MHz via the 2D TRACT experiment1, 12-13,using variable delays from 1-190 ms. […]

[3] = test system: CIN85 SH3C domain; test: NMR titration (chemical shift perturbations) of 15N-labeled SH3C domain with synthetic CIN85-PRM1 peptides; assay type: binding, human; conditions: same peptide
Description: as §1, §2, §3, §4, §5, §6

[4] = target: T3, CIN85 SH3B domain (Homo sapiens, UniProt Q96B97); test: NMR titration (chemical shift perturbations) of 15N-labeled SH3B domain with synthetic CIN85-PRM1 peptide; assay type: binding; conditions: isolated SH3B domain, CSP of 15N-labeled domain, error of fitted KD from bootstrap resampling, read-out: KD (mM), binary SH3:peptide interaction
T3 construct: GST (with thrombin cleavage site) (N); made in house; host or cells: Escherichia coli BL21(DE3)
T3 sequence (Q96B97 98-157 limits assumed): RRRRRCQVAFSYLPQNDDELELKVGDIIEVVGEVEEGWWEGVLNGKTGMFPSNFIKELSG
Description: as §7, §8, §9, §4, §10

[5] = target: T4, CIN85 SH3C domain (human, UniProt Q96B97-1 262-333); test: NMR titration; 15N-labelled isolated SH3 domain titrated with synthetic 14-residue peptide; chemical shift perturbations; KD fitted, error by bootstrap resampling; conditions: both partners purified
T4 construct: the NMR structure PDB 2k9g of SH3C was used to map the shifts; 15N-labelled for NMR; The limits of PDB 2k9g may differ from those of the construct; also called C-terminal SH3 domain
T4 sequence: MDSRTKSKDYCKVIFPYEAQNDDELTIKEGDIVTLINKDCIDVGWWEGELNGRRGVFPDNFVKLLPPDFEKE

[6] = target: T5, CIN85 SH3B domain (human); test: as above; conditions: both partners purified
T5 chain: T3 sequence (Q96B97 98-157 limits assumed)

[7] = target: T6, CIN85 SH3A domain (human); test: as above; conditions: both partners purified
T6 chain: T2 sequence (Q96B97 1-58 limits assumed)

**Q.** For “Ac-FKDKPIKLAPASIE-NH2 [^219FKDKPIKLAPASIE^232]”, which Kd ([1]; isolated SH3C domain, NMR titration, CSP of 15N-labeled domain, error of fitted KD from bootstrap resampling, read-out: KD (mM), binary SH3:peptide interaction) is on record?
**A.** > 2.45 mM

**Q.** Which results are given for “Ac-FKDKPIKLAPRSIE-NH2 [^219FKDKPIKLAPRSIE^232]”?
**A.** difference in binding energy compared to wild-type peptide (ΔΔG, net energetic contribution of the mutated residue) [1]: 0.784 ± 0.0478 kcal/mol; fold increase of KD compared to wild-type peptide [1]: 4 fold

**Q.** Which results are given for “Ac-FKDKPIKLRPASIE-NH2 [^219FKDKPIKLRPASIE^232]”?
**A.** difference in binding energy compared to wild-type peptide (ΔΔG, net energetic contribution of the mutated residue) [1]: 1.51 ± 0.239 kcal/mol; fold increase of KD compared to wild-type peptide [1]: 12 fold

**Q.** With “Ac-FKDKPIKLRPRSIE-NH2 [^219FKDKPIKLRPRSIE^232]” as the molecule, how does the Kd [2] read?
**A.** 0.73 ± 0.02 mM

**Q.** What about the “fold lower dissociation constant (KD) of SH3C than SH3A” value ([3]; SH3C versus SH3A) of the same molecule?
**A.** 3 fold

**Q.** And the “fold lower dissociation constant (KD) of SH3C than SH3B” value ([3]; SH3C versus SH3B)?
**A.** 5 fold

**Q.** And the Kd [4]?
**A.** 1.09 ± 0.05 mM

B1: CIN85-PRM1 peptide pS230 (residues 219-232) (peptide)
peptide: FKDKPIKLRPR[pS]IE
notes: CIN85, human, residues 219-232 with phosphoserine at S230; also called pS230 peptide; source: synthetic peptide
**Q.** Which Kd [5] does the source give for B1 here?
**A.** 2350 µM

B2: CIN85-PRM1 peptide, wild type (residues 219-232) (peptide)
peptide: FKDKPIKLRPRSIE
notes: CIN85, human, residues 219-232 of the linker between SH3B and SH3C, holding the proline-rich motif CIN85-PRM1; also called wild-type CIN85-PRM1 peptide; source: synthetic peptide
**Q.** What does the source list for B2?
**A.** Kd [5]: 210 µM; Kd [6]: 1090 µM; Kd [7]: 730 µM

B3: CIN85-PRM1 peptide R227A/R229A (residues 219-232) (peptide)
peptide: FKDKPIKLAPASIE
notes: CIN85, human, residues 219-232 with R227A and R229A; also called R227A/R229A mutant peptide; source: synthetic peptide
**Q.** B3 was tested. Which Kd [5] did it give?
**A.** > 2450 µM

B4: CIN85-PRM1 peptide R229A (residues 219-232) (peptide)
peptide: FKDKPIKLRPASIE
notes: CIN85, human, residues 219-232 with R229A; also called R229A mutant peptide; source: synthetic peptide
**Q.** B4 was tested. Which Kd [5] did it give?
**A.** 2450 µM

B5: CIN85-PRM1 peptide S230D (residues 219-232) (peptide)
peptide: FKDKPIKLRPRDIE
notes: CIN85, human, residues 219-232 with the phosphomimetic S230D; also called S230D peptide; source: synthetic peptide
**Q.** B5 was tested. Which Kd [5] did it give?
**A.** 710 µM

B6: CIN85-PRM1 peptide S230A (residues 219-232) (peptide)
peptide: FKDKPIKLRPRAIE
notes: CIN85, human, residues 219-232 with S230A; also called S230A peptide; source: synthetic peptide
**Q.** With B6 as the molecule, how does the Kd [5] read?
**A.** 200 µM

B7: CIN85-PRM1 peptide R227A (residues 219-232) (peptide)
peptide: FKDKPIKLAPRSIE
notes: CIN85, human, residues 219-232 with R227A; also called R227A mutant peptide; source: synthetic peptide
**Q.** With B7 as the molecule, how does the Kd [5] read?
**A.** 750 µM
